The structures appear in SMILES notation. Structures can show the parent of a compound that is named as a salt. Where two headings read alike, the source gives them in different places.

For one data set, the system named is MV-4-11. Nature of the data set: Antiproliferation assay 7, MV-4-11. The following applies: MV-4-11 cells, CellTiter-Glo, read-out: Antiproli MV-4-11 IC50 median. The format is cell-based. The method, then:
(§1) Assessment of the Anti-Proliferative Effect of Compounds in Different Cell Lines
(§2) The impact of compounds on the proliferation of different cell lines was assessed using the CellTiter-Glo® Luminescent Cell Viability reagent from Promega (G7573).
(§3) In parallel, cells were plated in a reference (day 0) plate for time zero determination.
(§4) Rim wells were excluded. The cells were incubated for 72 hours in a humidified incubator at 37° C. The day 0 plate was measured by adding 30 μL/well of CTG solution (CellTiter-Glo® Luminescent Cell Viability reagent, Promega G7573) to time zero wells in the reference plate followed by a 10 minutes incubation and luminescence reading at 0.1 ms. using the PHERAstar FS microplate reader (BMG Labtech).
(§5) After 72 hours incubation, the treated plates were measured in the same way as the day 0 plate mentioned above.

Data set [1] deals with SUDHL10. Nature of the data set: Induction of cytotoxicity (Assay 6), SUDHL10.
The test system of data set [2] is SUDHL10. Nature of the data set: Induction of caspase-3/7 activity (Assay 4), SUDHL10. The class given is cell-based. Particulars: SUDHL10 cells. The method, then:
(§6) Induction of Caspase-3/7 Activity Upon Treatment of Cells with Selected Compounds
In contrast, MCL-1 inhibitors are expected to antagonize this effect leading to an increase in apoptosis, which can be determined by measuring the activity of caspase-3/7.
(§7) The activity of caspase-3/7 was determined in DLBCL (Diffuse large B-cell lymphoma) cell lines (SUDHL5 and SUDHL10) upon treatment with different compounds, using the Caspase-Glo®3/7 reagent from Promega (G8092).
(§8) Rim wells were excluded. The cells were incubated for 3 hours in a humidified incubator at 37° C.
(§9) For the evaluation of the results, the background measured with “medium-only” was subtracted from all other values.

Data set [3] deals with SUDHL5. Nature of the data set: Induction of cytotoxicity (Assay 6), SUDHL5.
The subject of data set [4] is SUDHL5. Nature of the data set: Induction of caspase-3/7 activity (Assay 4), SUDHL5. The class given is cell-based. Particulars: SUDHL5 cells. The method, then:
as §6
The BH3-domain of MCL-1 sequesters pro-apoptotic proteins, thereby inhibiting apoptosis. In contrast, MCL-1 inhibitors are expected to antagonize this effect leading to an increase in apoptosis, which can be determined by measuring the activity of caspase-3/7.
as §7, §8, §9

The subject of the next data set is AMO-1. Nature of the data set: Antiproliferation assay 7, AMO-1. The format is cell-based. Particulars: AMO-1 cells, CellTiter-Glo, read-out: Antiproli AMO-1 IC50 median. The method, then:
as §1, §2, §3, §4, §5

Data set [5] has as its system SUDHL5. Nature of the data set: Antiproliferation assay 7, SUDHL5. Particulars: SUDHL5 cells, CellTiter-Glo, read-out: Antiproli SUDHL5 IC50 (median). The class given is cell-based. The method, then:
as §1, §2, §3, §4, §5
A general note: In ATP-based viability assays light output follows the ATP content of the culture.

[6] abbreviates: Homo sapiens, SU-DHL10, 5 h, read-out: Cytotox SUDHL10 IC50 (median), SUDHL10 cells, 5 hours, CellTiter-Glo.
The mark [7] stands for this setting: Homo sapiens, SU-DHL10, 3 h, Caspase-Glo 3/7, read-out: Caspase SUDHL10 EC50 (median).
Setting [8] is: Homo sapiens, SU-DHL-5, 5 h, read-out: Cytotox SUDHL5 IC50 (median), SUDHL5 cells, 5 hours, CellTiter-Glo.
[9] abbreviates: Homo sapiens, SU-DHL-5, 3 h, Caspase-Glo 3/7, read-out: Caspase SUDHL5 EC50 (median).
The mark [10] stands for this setting: read-out: Cytotox SUDHL10 IC50 (median), SUDHL10 cells, 5 hours, CellTiter-Glo.
The mark [11] stands for this setting: 3 hours, Caspase-Glo 3/7, read-out: Caspase SUDHL10 EC50 (median).
Where [12] appears, read: read-out: Cytotox SUDHL5 IC50 (median), SUDHL5 cells, 5 hours, CellTiter-Glo.
The mark [13] stands for this setting: 3 hours, Caspase-Glo 3/7, read-out: Caspase SUDHL5 EC50 (median).

Usually IC50 stands for the concentration at which inhibition is half-maximal. By EC50 is commonly meant the concentration needed to bring the measured effect to its halfway point. For the molecule `CCc1nn(CCN2CCOCC2)c2c1-c1c(Cl)ccc3c(CCCOc4cccc5ccccc45)c(C(=O)O)n(c13)C/C=C\CN(C)C2` (racemic) [Example 42, (rac)-(11Z)-4-chloro-3-ethyl-14-methyl-1-[2-(morpholin-4-yl)ethyl]-7-{3-[(naphthalen-1-yl)oxy]-propyl}-10,13,14,15-tetrahydro-1H-pyrazolo[3′,4′:8,9][1,6]diazacycloundecino[10,11,1-hi]indole-8-carboxylic Acid], the IC50 in the data set on MV-4-11 (Homo sapiens, MV4-11, 72 h) is 0.975 µM; in the data set with SUDHL10 [1] (setting [6]), 1.6 µM; in the data set on SUDHL5 [3] (setting [8]) it was 0.6 µM; in the data set with AMO-1 (Homo sapiens, AMO1, 72 h), 1.38 µM; with SUDHL5 [5] (Homo sapiens, SU-DHL-5, 72 h), 0.22 µM. Moreover, the EC50 in the data set on SUDHL10 [2] (setting [7]) is 1.3 µM; in the data set on SUDHL5 [4] (setting [9]), 0.54 µM.
On to `CCc1nn(C)c2c1-c1c(Cl)ccc3c(CCCOc4cccc5cc(F)ccc45)c(C(=O)O)n(c13)CCCCN(C)C2` (single isomer, unassigned; enantiomer 2) [Example 41, 4-chloro-3-ethyl-7-{3-[(6-fluoronaphthalen-1-yl)oxy]propyl}-1,14-dimethyl-10,11,12,13,14,15-hexahydro-1H-pyrazolo[3′,4′:8,9][1,6]diazacycloundecino[10,11,1-hi]indole-8-carboxylic Acid (Enantiomer 2)], for which the half-maximal inhibitory concentration (IC50) was 4.89 µM with MV-4-11 (72 hours); 12 µM with SUDHL10 [1] (setting [10]); 4 µM in the data set with SUDHL5 [3] (setting [12]); 14.9 µM in the data set on AMO-1 (72 hours); 2.7 µM with SUDHL5 [5] (72 hours). The figures for the EC50 with SUDHL10 [2] (setting [11]) and in the data set with SUDHL5 [4] (setting [13]) were 9.4 µM and 2.8 µM, respectively.
As for `CCc1c2c(nn1C)CN(C)CCCCn1c(C(=O)O)c(CCCOc3cccc4cc(F)ccc34)c3ccc(Cl)c-2c31` (single isomer, unassigned; enantiomer 2) [Example 7, 4-chloro-3-ethyl-7-{3-[(6-fluoronaphthalen-1-yl)oxy]propyl}-2,14-dimethyl-10,11,12,13,14,15-hexahydro-2H-pyrazolo[3′,4′:8,9][1,6]diazacycloundecino[10,11,1-hi]indole-8-carboxylic Acid (Enantiomer 2)], the IC50 in the data set with MV-4-11 (72 hours) was 8.63 µM; in the data set with SUDHL10 [1] (setting [10]) it was 8.3 µM; in the data set with SUDHL5 [3] (setting [12]) it was 7.1 µM; in the data set on AMO-1 (72 hours), 11.1 µM; in the data set with SUDHL5 [5] (72 hours), 4.2 µM. Also, the EC50 in the data set on SUDHL10 [2] (setting [11]) was found to be 16 µM; in the data set on SUDHL5 [4] (setting [13]), 11 µM.
With `CCc1c2c(nn1C)COCCCCn1c(C(=O)O)c(CCCOc3cccc4cc(F)ccc34)c3ccc(Cl)c-2c31` (racemic) [Example 36, (rac)-4-chloro-3-ethyl-7-{3-[(6-fluoronaphthalen-1-yl)oxy]propyl}-2-methyl-2,10,11,12,13,15-hexahydropyrazolo[4′,3′:9,10][1,6]oxazacycloundecino[8,7,6-hi]indole-8-carboxylic Acid], the IC50 was 1.01 µM in the data set on MV-4-11 (Homo sapiens, MV4-11, 72 h); 0.64 µM in the data set with SUDHL10 [1] (setting [6]); 0.3 µM in the data set with SUDHL5 [3] (setting [8]); 0.286 µM with AMO-1 (Homo sapiens, AMO1, 72 h); 0.34 µM in the data set on SUDHL5 [5] (Homo sapiens, SU-DHL-5, 72 h). In addition, the values for the EC50 with SUDHL10 [2] (setting [7]) and with SUDHL5 [4] (setting [9]) were 0.45 µM and 0.3 µM, respectively.
`CCc1nn(CCN2CCOCC2)c2c1-c1c(Cl)ccc3c(CCCOc4cccc5ccccc45)c(C(=O)O)n(c13)CCCCN(C)C2` (racemic) [Example 45, (rac)-4-chloro-3-ethyl-14-methyl-1-[2-(morpholin-4-yl)ethyl]-7-{3-[(naphthalen-1-yl)oxy]propyl}-10,11,12,13,14,15-hexahydro-1H-pyrazolo[3′,4′:8,9][1,6]diazacycloundecino[10,11,1-hi]indole-8-carboxylic Acid]: the IC50 in the data set on MV-4-11 (Homo sapiens, MV4-11, 72 h) was 0.628 µM; with SUDHL10 [1] (setting [6]), 0.75 µM; in the data set on SUDHL5 [3] (setting [8]), 0.4 µM; with AMO-1 (Homo sapiens, AMO1, 72 h), 0.593 µM; in the data set with SUDHL5 [5] (Homo sapiens, SU-DHL-5, 72 h), 0.53 µM. For the same molecule, the EC50 worked out at 0.46 µM with SUDHL10 [2] (setting [7]) and 0.29 µM in the data set on SUDHL5 [4] (setting [9]).
Consider `CCc1c2c(nn1C)COCCCCn1c(C(=O)O)c(CCCOc3cccc4cc(F)ccc34)c3ccc(Cl)c-2c31` (single isomer, unassigned; enantiomer 2) [Example 38, (−)-4-chloro-3-ethyl-7-{3-[(6-fluoronaphthalen-1-yl)oxy]propyl}-2-methyl-2,10,11,12,13,15-hexahydropyrazolo[4′,3′:9,10][1,6]oxazacycloundecino[8,7,6-hi]indole-8-carboxylic acid-N-ethylethanamine Salt (Enantiomer 2)], for which the IC50 in the data set with MV-4-11 (72 hours) is 13.4 µM; in the data set on SUDHL10 [1] (setting [10]), 14 µM; in the data set on SUDHL5 [3] (setting [12]), 4.3 µM; in the data set on AMO-1 (72 hours), 11.5 µM; with SUDHL5 [5] (72 hours), 1.8 µM. In addition, the EC50 with SUDHL10 [2] (setting [11]) worked out at 13 µM.
Turning to `CCc1nn(CCN2CCOCC2)c2c1-c1c(Cl)ccc3c(CCCOc4cccc5ccccc45)c(C(=O)O)n(c13)CCCCN(C)C2` (single isomer, unassigned; enantiomer 2) [Example 47, 4-chloro-3-ethyl-14-methyl-1-[2-(morpholin-4-yl)ethyl]-7-{3-[(naphthalen-1-yl)oxy]propyl}-10,11,12,13,14,15-hexahydro-1H-pyrazolo[3′,4′:8,9][1,6]diazacycloundecino[10,11,1-hi]indole-8-carboxylic Acid (Enantiomer 2)], the concentration for half-maximal inhibition (IC50) with MV-4-11 (72 hours) turned out to be 5.65 µM; with SUDHL10 [1] (setting [10]), 17 µM; in the data set on SUDHL5 [3] (setting [12]) it was 10 µM; in the data set with SUDHL5 [5] (72 hours), 8 µM. The EC50 in the data set on SUDHL10 [2] (setting [11]) worked out at 22 µM; in the data set with SUDHL5 [4] (setting [13]), 11 µM.
Regarding `CCc1nn(CCN2CCOCC2)c2c1-c1c(Cl)ccc3c(CCCOc4cccc5ccccc45)c(C(=O)O)n(c13)CCCCOC2` (single isomer, unassigned; enantiomer 2) [Example 10, 4-chloro-3-ethyl-1-[2-(morpholin-4-yl)ethyl]-7-[3-(naphthalen-1-yloxy)propyl]-1,10,11,12,13,15-hexahydropyrazolo[4′,3′:9,10][1,6]oxazacycloundecino[8,7,6-hi]indole-8-carboxylic acid-N-ethylethanamine Salt (Enantiomer 2)], the IC50 in the data set with MV-4-11 (Homo sapiens, MV4-11, 72 h) amounted to 10.9 µM; in the data set on SUDHL10 [1] (setting [6]), 11 µM; in the data set with SUDHL5 [3] (setting [8]), 5.2 µM; with SUDHL5 [5] (Homo sapiens, SU-DHL-5, 72 h), 4.9 µM. For the same molecule, the values for the EC50 with SUDHL10 [2] (setting [7]) and in the data set with SUDHL5 [4] (setting [9]) were 14 µM and 6.6 µM, respectively.
Take `CCc1nn(CCN2CCOCC2)c2c1-c1c(Cl)ccc3c(CCCOc4cccc5ccccc45)c(C(=O)O)n(c13)C/C=C\CN(C)C2` (single isomer, unassigned; enantiomer 2) [Example 44, (11Z)-4-chloro-3-ethyl-14-methyl-1-[2-(morpholin-4-yl)ethyl]-7-{3-[(naphthalen-1-yl)oxy]propyl}-10,13,14,15-tetrahydro-1H-pyrazolo[3′,4′:8,9][1,6]diazacycloundecino[10,11,1-hi]indole-8-carboxylic Acid-Ammonia Salt (Enantiomer 2)]: the IC50 came to 11.7 µM in the data set on MV-4-11 (72 hours); 15 µM with SUDHL10 [1] (setting [10]); 8.1 µM in the data set on SUDHL5 [3] (setting [12]); 15.5 µM in the data set on AMO-1 (72 hours); 7.2 µM in the data set with SUDHL5 [5] (72 hours). Further, the results for the EC50 in the data set on SUDHL10 [2] (setting [11]) and with SUDHL5 [4] (setting [13]) were 13 µM and 9.4 µM, respectively.
Regarding `CCc1nn(C)c2c1-c1c(Cl)ccc3c(CCCOc4cccc5cc(F)ccc45)c(C(=O)O)n(c13)CCCCN(C)C2` (racemic) [Example 39, (rac)-4-chloro-3-ethyl-7-{3-[(6-fluoronaphthalen-1-yl)oxy]propyl}-1,14-dimethyl-10,11,12,13,14,15-hexahydro-1H-pyrazolo[3′,4′:8,9][1,6]diazacycloundecino[10,11,1-hi]indole-8-carboxylic Acid], the 50% inhibitory concentration (IC50) is 0.442 µM in the data set with MV-4-11 (Homo sapiens, MV4-11, 72 h); 0.41 µM in the data set on SUDHL10 [1] (setting [6]); 0.23 µM in the data set on SUDHL5 [3] (setting [8]); 0.359 µM in the data set with AMO-1 (Homo sapiens, AMO1, 72 h); 0.2 µM in the data set with SUDHL5 [5] (Homo sapiens, SU-DHL-5, 72 h). Besides, the results for the 50% effective concentration (EC50) with SUDHL10 [2] (setting [7]) and with SUDHL5 [4] (setting [9]) were 0.39 µM and 0.2 µM, respectively.

The values above are taken from patent US11447504B2, “Macrocyclic chlorine substituted indole derivatives” (Bayer Aktiengesellschaft, priority 2017, dated 2022).
